This note sets out measurements from PMC12473689, “Drug Metabolism and Pharmacokinetics of Oxazolo[4,5-c]quinoline Analogs as Novel Interleukin-33 Inhibitors” (Pharmaceutics, 2025).

Where a name gives a salt, the structure may show the parent alone.

The nature of series [1]: Binding in human liver S9 fraction by equilibrium dialysis (RED). The settings on record: human, liver S9 fraction, pH 7.4, human liver S9, 1 mg/mL protein, equilibrium dialysis 37 °C 4 h, mean ± SD (n = 3); read-out: fu (%) in liver S9 fractions. The series is classed as in vitro ADME. The procedure: (§1) The nonspecific binding of KB-1517 and KB-1518 in human and mouse plasma and liver S9 fractions was determined by equilibrium dialysis using a Rapid Equilibrium Device (RED) system (Thermo Fisher Scientific, Seoul, Republic of Korea).
(§2) Working solutions (200 μM for plasma, 60 μM for S9 fractions) were prepared in 40% aqueous acetonitrile. These were diluted 20-fold into either plasma or S9 incubation buffer (1 mg/mL protein, 200 mM Tris-HCl, 2 mM MgCl2, pH 7.4) to create the final dosing solutions.
(§3) For the dialysis, RED inserts (8 kDa MWCO) were used. Into each device, 200 μL of a dosing solution was added to the sample chamber, and 350 μL of PBS was added to the buffer chamber. The plate was sealed and incubated at 37 °C for 4 h on an orbital shaker (100 rpm) to allow the system to reach equilibrium.
(§4) Following incubation, 50 μL aliquots were taken from both chambers. To ensure analytical consistency, the samples were matrix-matched: the sample chamber aliquot was mixed with 50 μL of PBS, and the buffer chamber aliquot was mixed with 50 μL of the corresponding blank matrix (plasma or S9 incubation buffer). Proteins were then precipitated by adding 200 μL of ice-cold acetonitrile containing diclofenac (1 μg/mL) as IS. The samples were subsequently vortexed, sonicated for 5 min, and centrifuged at 4000× g for 20 min. Finally, a 100 μL aliquot of the resulting supernatant was diluted with 100 μL of HPLC-grade water in a 96-well plate for subsequent LC-MS/MS analysis.
On the technique in general: Equilibrium dialysis compares concentrations on both sides of a semipermeable membrane.

Series [2] is described as follows: Binding in mouse liver S9 fraction by equilibrium dialysis (RED). The series is classed as in vitro ADME. The conditions noted are these: ICR, mouse, liver S9 fraction, pH 7.4, mouse liver S9, 1 mg/mL protein, equilibrium dialysis 37 °C 4 h, mean ± SD (n = 3); read-out: fu (%) in liver S9 fractions. As to the method: as §1, §2, §3, §4
Series [3] in a line: Metabolite identification in liver S9 incubations. The series is classed as in vitro ADME. The settings on record: S9 1 mg protein/mL, 60 min, 37 °C, H: human, M: mouse. As to the method:
The incubation mixture (final volume 200 µL) contained: 125 µL of deionized water, 40 µL of Tris mix buffer, 10 µL of 20 mg protein/mL S9 fraction (final concentration 1 mg protein/mL), and 5 µL of the test compound working solution (final concentration 3 µM). The final concentrations of DMSO and acetonitrile were 0.03% and 1%, respectively. The mixture was pre-incubated at 37 °C for 5 min in a shaking water bath. The reaction was initiated by adding 20 µL of the combined cofactor solution (final concentrations: 1 mM NADPH, 0.5 mM UDPGA, 0.1 mM PAPS, 2.5 mM GSH). Control incubations were performed without the cofactor mixture (replaced with buffer) and at 0 min (quenched immediately after adding cofactors). Incubations were carried out at 37 °C for 0, 15, 30, and 60 min (for stability) or 60 min (for metabolite ID). Reactions were terminated by adding 200 µL of ice-cold acetonitrile containing IS (diclofenac).
Metabolite identification was performed using samples generated from the in vitro liver S9 incubations (final substrate concentration 20 µM, 60 min incubation) and plasma samples from the in vivo IP administration study. Samples were analyzed using an Agilent 6530 Q-TOF LC-MS/MS system (Agilent Technologies Korea Ltd., Seoul, Republic of Korea). Data processing and metabolite identification were performed using Agilent MassHunter Metabolite ID software (ver. B.04.00), searching for expected biotransformations (e.g., oxidation, demethylation, glucuronidation, sulfation, GSH conjugation) and comparing MS/MS fragmentation patterns of metabolites with the parent drug.
Qualitative analysis for metabolite identification was performed using the same LC system coupled to an Agilent 6530 Q-TOF mass spectrometer system (Agilent Technologies Korea Ltd., Seoul, Republic of Korea) with a dual AJS ESI source operating in positive ion mode. The chromatographic conditions were identical to those used for quantitative analysis.
The ion source parameters for the mass spectrometer were set as follows: gas temperature 325 °C, gas flow 12 L/min, nebulizer pressure 35 psi, sheath gas temperature 350 °C, and sheath gas flow 10 L/min. Data were acquired in MS scan mode (m/z 100–1000) and targeted MS/MS or Auto MS/MS mode. Data acquisition and processing were performed using Agilent MassHunter Qualitative Analysis (ver. B.05.00) and Metabolite ID software (ver. B.04.00).
To elucidate the metabolic pathways, metabolite identification studies were conducted using in vitro liver S9 fractions incubations (20 µM substrate) and in vivo plasma samples from mice administered an IP dose (200 µg/mouse). Metabolites were identified based on accurate mass measurements, isotopic patterns, and MS/MS fragmentation patterns compared to the parent compound using LC-Q-TOF MS/MS system (Agilent Technologies Ltd., Seoul, Republic of Korea).

A short description of series [4]: Plasma protein binding by equilibrium dialysis (RED), human plasma. The class given is in vitro ADME. The conditions noted are these: equilibrium dialysis 37 °C 4 h, mean ± SD (n = 3), read-out: fu (%) plasma protein binding. The procedure: as §1, §2, §3, §4
Series [5] in a line: Plasma protein binding by equilibrium dialysis (RED), mouse plasma. The class given is in vitro ADME. The conditions noted are these: male, ICR, equilibrium dialysis 37 °C 4 h, mean ± SD (n = 3), read-out: fu (%) plasma protein binding. As to the method: as §1, §2, §3, §4
The subject of series [6] is flavin-containing monooxygenase (FMO) in HLM. Description: FMO involvement: metabolic stability in control vs heat-inactivated human liver microsomes. The series is classed as in vitro ADME. The conditions noted are these: pre-incubated 45 °C for 5 min vs control, 60 min incubation, NADPH. As to the method:
(§5) To determine the potential involvement of flavin-containing monooxygenase (FMO), a parallel assay was conducted with HLM and MLM [31]. To selectively inactivate FMO, microsomes (20 mg protein/mL) were pre-incubated at 45 °C for 5 min. Non-inactivated microsomes served as the control. Subsequently, metabolic incubations were performed with both control and heat-inactivated microsomes at 37 °C for 60 min. The incubation procedure was identical to that described above for the S9 fractions, with the exception that NADPH was used as the sole cofactor.

The subject of series [7] is flavin-containing monooxygenase (FMO) in MLM. Description: FMO involvement: metabolic stability in control vs heat-inactivated mouse liver microsomes. The series is classed as in vitro ADME, male ICR mouse. The conditions noted are these: pre-incubated 45 °C for 5 min vs control, 60 min incubation, NADPH. As to the method:
as §5
(In general: Liver microsomes are vesicles of endoplasmic reticulum, rich in cytochrome P450 enzymes.)

For `Cc1cc(=O)n(-c2ccccc2)n1C` [Antipyrine, antipyrine, reference compound], the fraction unbound at 4 h, 3 µM is 0.946 ± 0.026 in series [1] and 0.937 ± 0.011 in series [2].
For the molecule `CCC(C)n1ncn(-c2ccc(N3CCN(c4ccc(OCC5COC(Cn6cncn6)(c6ccc(Cl)cc6Cl)O5)cc4)CC3)cc2)c1=O` (stereo not drawn) [Itraconazole, itraconazole, reference compound], the fraction unbound at 4 h, 3 µM came out at 0.028 ± 0.006 in series [1] and 0.019 ± 0.002 in series [2].
With `CNCCn1c(=O)c2nc(-c3ccc(C(F)(F)F)cc3)oc2c2ccccc21` [KB-1517 M1], the “Species in whose liver S9 the metabolite was detected” value (from here on “Species”) in series [3] (KB-1517 20 µM) is recorded as “H, M”.
On to `C[N+](C)([O-])CCn1c(=O)c2nc(-c3ccc(C(F)(F)F)cc3)oc2c2ccccc21` [KB-1517 M2], for which the “Species” value in series [3] (KB-1517 20 µM) is listed as “H, M”.
Take `CN(CCO)c1nc2ccccc2c2oc(-c3ccc(C(F)(F)F)cc3)nc12` [KB-1518 M1]: the “Species” value in series [3] (KB-1518 20 µM) is on record as “H, M”.
For the molecule `OCCNc1nc2ccccc2c2oc(-c3ccc(C(F)(F)F)cc3)nc12` [KB-1518 M2], the “Species” value in series [3] (KB-1518 20 µM) is on record as “H, M”.
As to `C[N+](C)([O-])CCOc1nc2ccccc2c2oc(-c3ccc(C(F)(F)F)cc3)nc12` [KB-1518 M3], the “Species” value in series [3] (KB-1518 20 µM) is “H, M”.
In the case of `CC(C)NCC(O)COc1cccc2ccccc12` (stereo not drawn) [Propranolol, propranolol], the fraction unbound at 4 h, 10 µM in series [4] is 0.262 ± 0.026; in series [5] it was 0.247 ± 0.005.
On to `CNC(=C[N+](=O)[O-])NCCSCc1ccc(CN(C)C)o1` [Ranitidine, ranitidine], for which the fraction unbound at 4 h, 10 µM in series [4] was found to be 0.85 ± 0.006; in series [5], 0.888 ± 0.054.
Turning to `CN(C)CCCOc1nn(Cc2ccccc2)c2ccccc12` [benzydamine, Benzydamine hydrochloride], the “Effect of heat inactivation (FMO) on metabolism” value in series [6] and in series [7] was “significantly inhibited the metabolism” throughout.
